# Measurements as given in article PMC12472494, “Anticonvulsant Potential of 1-Aryl-6,7-dimethoxy-1,2,3,4-tetrahydroisoquinolines: Insights from Strychnine and Nicotine Models in In Vivo and In Silico Studies” (Pharmaceuticals, 2025).
# Where “and” joins values, the source holds several entries; their conditions need not be identical. Equal values may be shown once.
# Experiments:
# [1] = tested on: strychnine-induced seizures; assay: Strychnine-induced seizure model; format: in vivo, mice; conditions: for responders at 1 mg/kg: Mus musculus, read-out: Survival Rate; for responders at 1 mg/kg / Duration of Tremor and Seizures / Latency to Tremor and Seizure Onset: oral dose 1.0 mg/kg 60 min before strychnine 1.5 mg/kg s.c., N = 10; for Duration of Tremor and Seizures / Latency to Tremor and Seizure Onset: mean ± SD; for survival rate of strychnine-poisoned animals: dose not given
# Source text: (§1) The anticonvulsant effects of the examined substances were studied in male white mice weighing 18–22 g, divided into the following groups: control (including the strychnine and nicotine groups), carbamazepine group, Convulex group, and experimental groups (one for each tested substance). Simple randomization (“heads or tails” coin toss) was used to assign animals to groups. Each group contained 10 animals. Healthy animals were included in the experiments after a 14-day quarantine period. No animals were excluded from the study. Convulsant agents were administered subcutaneously at doses of 10.0 mg/kg for nicotine (Sigma–Aldrich, Saint Louis, MO, USA) and 1.5 mg/kg for strychnine (Sigma–Aldrich, Saint Louis, MO, USA), 60 min after the oral administration of the test substances at doses ranging from 0.1 to 10 mg/kg. The onset time, duration of tremors and seizures, and survival rate of the animals were recorded. Carbamazepine (Darnitsa, Kiev, Ukraine) at doses of 5.0–10.0 mg/kg and Convulex (valproate) (Gerot Pharmazeutika GmbH, Vienna, Austria) at doses of 75.0–100.0 mg/kg (based on the therapeutic anticonvulsant dose) were used as reference drugs.
# (§2) Data were presented as mean ± SD for different groups. Statistical analysis was performed using OriginPro 9.0 (MicroCal Software, Northampton, MA, USA), with p < 0.05 considered statistically significant.
# [2] = tested on: tremorogenic and convulsive actions of nicotine; assay: Nicotine-induced tremor and seizure model; format: in vivo, mice; conditions: for responders at 1 mg/kg: Mus musculus, po, read-out: Survival Rate; for Duration of Seizures / Latency to Seizure Onset: oral dose 1.0 mg/kg 60 min before nicotine 10 mg/kg s.c., mean ± SD, N = 10; for survival rate of the animals increased to: at low doses (0.1–5 mg/kg); for activity against tremorogenic and convulsive actions of nicotine versus reference drugs (in words): doses of 0.1–5 mg/kg
# Source text: as §1, §2
# [3] = parameters: method as in PMID 36677539; conditions: per os; cited from earlier work
Structure (SMILES),responders at 1 mg/kg [1],Duration of Tremor and Seizures [1],Latency to Tremor and Seizure Onset [1],responders at 1 mg/kg [2],Duration of Seizures [2],Latency to Seizure Onset [2],LD50 [3],survival rate of strychnine-poisoned animals [1],survival rate of the animals increased to [2],activity against tremorogenic and convulsive actions of nicotine versus reference drugs (in words) [2],survival rate in nicotine-poisoned animals ([2]; from a dose of 0.1 mg/kg)
"COc1ccc(C2NCCc3cc(OC)c(OC)cc32)cc1 (centres unmarked) [Compound 5, 1-(4′-Methoxyphenyl)-6,7-dimethoxy-1,2,3,4-tetrahydroisoquinoline]",60%,0.54 ± 0.7 min,16.5 ± 1.8 min,80%,10.3 ± 0.6 min,2.1 ± 0.09 min,1040.3 (986.0 ± 1079.8) mg/kg,,,,
"COc1cc2c(cc1OC)C(c1ccccc1OC)NCC2 (centres unmarked) [Compound 6, 1-(2′-Methoxyphenyl)-6,7-dimethoxy-1,2,3,4-tetrahydroisoquinoline]",30%,0.50 ± 0.4 min,15.7 ± 1.7 min,100%,10.5 ± 0.5 min,2.4 ± 0.03 min,286.7 (256.9 ± 318.7) mg/kg,no more than 40%,90–100%,comparable activity to the reference drugs,90%
"COc1cc2c(cc1OC)C(c1ccccc1[N+](=O)[O-])NCC2 (centres unmarked) [Compound 7, 1-(2′-Nitrophenyl)-6,7-dimethoxy-1,2,3,4-tetrahydroisoquinoline]",40%,0.32 ± 0.7 min,14.2 ± 1.7 min,70%,7.6 ± 0.8 min,2.3 ± 0.07 min,948.9 (916.8 ± 975.8) mg/kg,,,,
"COc1cc2c(cc1OC)C(c1cccc([N+](=O)[O-])c1)NCC2 (centres unmarked) [Compound 8, 1-(3′-Nitrophenyl)-6,7-dimethoxy-1,2,3,4-tetrahydroisoquinoline]",40%,0.56 ± 0.4 min,15.9 ± 1.7 min,90%,15.5 ± 0.3 min,2.3 ± 0.08 min,531.4 (501.3 ± 554.1) mg/kg,,90–100%,comparable activity to the reference drugs,
"COc1cc2c(cc1OC)C(c1ccc([N+](=O)[O-])cc1)NCC2 (centres unmarked) [Compound 9, 1-(4′-Nitrophenyl)-6,7-dimethoxy-1,2,3,4-tetrahydroisoquinoline]",40%,0.51 ± 0.5 min,13.5 ± 1.9 min,90%,16.7 ± 0.4 min,2.5 ± 0.03 min,1898.8 (703.5 ± 2273.4) mg/kg,,,,
"COc1cc2c(cc1OC)C(c1ccccc1Cl)NCC2 (centres unmarked) [Compound 10, 1-(2′-Chlorophenyl)-6,7-dimethoxy-1,2,3,4-tetrahydroisoquinoline]",30%,0.60 ± 0.4 min,17.2 ± 1.7 min,70%,9.2 ± 0.9 min,2.2 ± 0.03 min,264.2 (224.8 ± 293.9) mg/kg,,,,
"COc1cc2c(cc1OC)C(c1cccc(Cl)c1)NCC2 (centres unmarked) [Compound 11, 1-(3′-Chlorophenyl)-6,7-dimethoxy-1,2,3,4-tetrahydroisoquinoline]",70%,0.46 ± 0.5 min,15.5 ± 1.2 min,70%,8.3 ± 0.3 min,2.2 ± 0.07 min,232.4 (211.8 ± 251.1) mg/kg,,,,
"COc1cc2c(cc1OC)C(c1ccc(Cl)cc1)NCC2 (centres unmarked) [Compound 12, 1-(4′-Chlorophenyl)-6,7-dimethoxy-1,2,3,4-tetrahydroisoquinoline]",20%,0.23 ± 0.6 min,18.5 ± 1.8 min,70%,7.0 ± 0.4 min,2.1 ± 0.09 min,730.4 (598.2 ± 883.7) mg/kg,,,,
"COc1cc2c(cc1OC)C(c1ccccc1Br)NCC2 (centres unmarked) [Compound 13, 1-(2′-Bromophenyl)-6,7-dimethoxy-1,2,3,4-tetrahydroisoquinoline]",40%,0.31 ± 0.7 min,10.5 ± 1.3 min,50%,5.0 ± 0.7 min,2.2 ± 0.03 min,315.8 (281.2 ± 345.2) mg/kg,no more than 40%,,,
"COc1cc2c(cc1OC)C(c1cccc(Br)c1)NCC2 (centres unmarked) [Compound 14, 1-(3′-Bromophenyl)-6,7-dimethoxy-1,2,3,4-tetrahydroisoquinoline]",60%,0.35 ± 0.8 min,18.5 ± 1.5 min,90%,2.5 ± 0.4 min,2.8 ± 0.02 min,446.7 (416.2 ± 471.3) mg/kg,,90–100%,comparable activity to the reference drugs,
"COc1cc2c(cc1OC)C(c1ccc(Br)cc1)NCC2 (centres unmarked) [Compound 15, 1-(4′-Bromophenyl)-6,7-dimethoxy-1,2,3,4-tetrahydroisoquinoline]",40%,0.50 ± 0.5 min,12.5 ± 1.2 min,70%,8.3 ± 0.3 min,2.2 ± 0.07 min,422.0 (399.4 ± 445.3) mg/kg,no more than 40%,,,
"COc1cc2c(cc1OC)C(c1ccc(N(C)C)cc1)NCC2 (centres unmarked) [Compound 16, 1-(4′-Dimethylaminophenyl)-6,7-dimethoxy-1,2,3,4-tetrahydroisoquinoline]",50%,0.31 ± 0.6 min,13.1 ± 1.5 min,90%,8.5 ± 0.7 min,2.7 ± 0.08 min,498.3 (471.6 ± 524.6) mg/kg,,90–100%,comparable activity to the reference drugs,
"COc1cc2c(cc1OC)C(c1cc(Br)ccc1O)NCC2 (centres unmarked) [Compound 17, 1-(2′-Hydroxy-5′-bromophenyl)-6,7-dimethoxy-1,2,3,4-tetrahydroisoquinoline]",40%,0.61 ± 0.5 min,15.7 ± 1.6 min,70%,8.1 ± 0.8 min,2.1 ± 0.07 min,297.3 (270.2 ± 323.7) mg/kg,,,,
"COc1cc2c(cc1OC)C(c1ccc(O)c(Br)c1)NCC2 (centres unmarked) [Compound 18, 1-(3′-Bromo-4′-hydroxyphenyl)-6,7-dimethoxy-1,2,3,4-tetrahydroisoquinoline]",50%,0.56 ± 0.6 min,14.6 ± 1.5 min,70%,8.9 ± 0.9 min,1.7 ± 0.04 min,3850 mg/kg and 3793.8 (3395.8 ± 4088.1) mg/kg,,,,
